Measurements taken from patent US9963703B2, “Compositions and methods for treating pancreatic cancer” (Autotelic LLC, priority 2016, dated 2018).

Key:
[1] = test system: TGFβ2; assay: TGFβ2 secretion/expression in WiDr colon cancer cells; assay type: cell-based
Excerpt: (§1) The aim of the study was to determine the effect of AP12009 (trabedersen) treatment in combination with 5-Fluorouracil (5-FU) on TGFβ2 secretion and on cellular proliferation of HUP-T3 pancreatic cancer cells and WiDr colon cancer cells in vitro.

[2] = test system: HUP-T3 pancreatic cancer cells; assay: Cellular proliferation of HUP-T3 pancreatic cancer cells in vitro; details: HUP-T3; treatment on day 1 for 5 h; measured after 7 days
Excerpt: as §1

[3] = test system: WiDr colon cancer cells; assay: Cellular proliferation of WiDr colon cancer cells in vitro; assay type: cell-based; details: treatment on day 1 for 5 h only
Excerpt: as §1

[4] = test system: TGFβ2; assay: TGFβ2 secretion/expression in HUP-T3 pancreatic cancer cells; assay type: cell-based
Excerpt: as §1

O=c1[nH]cc(F)c(=O)[nH]1 [5-FU, 5-Fluorouracil, reference compound]
5-FU concentrations at which TGFβ2 was suppressed [1]: > 75 µM | 5-FU concentrations that dose-dependently reduced cell proliferation [2]: > 10 µM | 5-FU concentrations that concentration-dependently reduced cell proliferation [3]: > 38 µM | 5-FU concentrations at which TGFβ2 was suppressed [4]: > 75 µM
